Measurements taken from US8729047B2, “Compositions for inhibiting redox-sensitive GTPases” (Board of Regents, The University of Texas System, priority 2010, dated 2014).

Columns and labels:
Rac1 = Rac1 (Homo sapiens, UniProt P63000); test: Co-IP ESI-MS of thioguanine nucleotide disulfide adduct in T cells; format: cell-based; design: endogenous in cells; details: for thioguanine nucleotide-Rac1 disulfide adduct: activated T cells, FIGS. 21, 27
Protocol: FIG. 21. Detection of 6-TGNP adduct from A7r5 and T cells. Experimental procedures using A7r5 (A and B) and T (C and D) cells, respectively, were identical to those of the experiments described in FIG. 19 and previous studies (Tiede et al. J. Clin. Invest. 111, 1133-1145 (2003); and Poppe et al. J. Immunol. 176, 640-651 (2006)). The cell extract was incubated with a monoclonal RhoA antibody (A and B) or a Rac1 antibody (C and D) coupled with resin. Resin was collected by centrifugation (5,000×g, 10 min), which was suspended in 50% methanol:0.1% formic acid. The protein portion was separated by brief centrifugation (3,000×g for 5 min), resuspended in a buffer containing 10 mM EDTA and 5 mM phosphate (pH 7.5), digested with trypsin for 10 h, and analyzed with MS. The MS peak at 1476.6 Da represents peptide-6-TGDP adduct; TC^20LLIVFSK-6-TGDP.
FIG. 27. Detection of 8-TGNP adduct from T and A7r5 cells. […] The indicated MS peak at 1476.6 Da represents peptide-8-TGDP adduct; TC^20LLIVFSK-8-TGDP (SEQ ID NO:4). The molecular weight of the peptide-8-TGDP adduct is exactly the same as that of the peptide-6-TGDP adduct.

T24 cells = test: Tumor cell apoptosis / viability (MTT); format: cell-based, human
Excerpt: (§1) Cell viability was examined employing 3-(4,5-dimethylthiazol-2-yl)-2,5-diphenyl tetrazolium bromide (MTT) (Cabello et al. Int. J. Oncol. 23, 697-704 (2003)).

HT1080 cells = test: Tumor cell apoptosis / viability (MTT); format: cell-based, human
Excerpt: as §1

RhoA = target: T1, RhoA (Rattus norvegicus, UniProt P61589); test: RhoA expression (Western) and RhoA G-LISA activity in A7r5 cells; format: cell-based
T1 construct: endogenous in cells; host or cells: A7r5 cells (rat aortic vascular smooth muscle)
T1 sequence (P61589 whole entry): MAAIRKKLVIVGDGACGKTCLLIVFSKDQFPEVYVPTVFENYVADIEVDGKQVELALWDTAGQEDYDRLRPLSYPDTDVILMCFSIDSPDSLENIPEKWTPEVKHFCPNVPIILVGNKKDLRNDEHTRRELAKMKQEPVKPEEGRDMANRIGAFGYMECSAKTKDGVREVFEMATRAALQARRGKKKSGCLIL
Protocol: FIG. 20. Determination of RhoA activity and MLC phosphorylation. […] Cell lysates in a buffer containing 1% NP-40, 10 mM EDTA, and 20 mM TrisHCl (pH 7.4) were centrifuged (50,000×g, 20 min) to remove solid matter. (A) The soluble cell extract was then used to perform Western blot analyses for RhoA and the MLC. This cell extract also was used for the co-IP-based ESI-MS analysis (FIG. 6). (B) A RhoA activity assay was colorimetrically determined using cell extract; the assay was performed with the RhoA G-LISA Activation Assay Kit (Cat. No. BK124) (Denver, Colo.). To examine the level of phosphorylation of the MLC, cells were cultured with ˜5 μCi of ^32P in 1 mL of phosphate-free DMEM. The collected cell extract was nutated with resin coupled with a macrophage myosin II antibody at 4° C. for 5 h. Resin was collected by centrifugation, and proteins bound to the resin were washed and eluted with a buffer (80° C.) containing […], 5 mM DTT, and 10 mM TrisHCl (pH 6.8). The immunoprecipitates were then analyzed by SDS-PAGE and autoradiographed. The values of RhoA activity and the MLC phosphorylation determined from untreated cells were set at 100%. […] The data represented in the figure represent the mean values of triplicate measurements, and the vertical error bar indicates standard errors.

HME-RhoC cells = test: Apoptosis / cell population of cells treated with thiopurines; format: cell-based, human; details: for cells that underwent apoptosis within a day: thiopurine 1 μM
Excerpt: RhoC-overexpressed mammary epithelium (HME-RhoC) cells were used to examine the effect of 6-TG and/or a redox agent on RhoC.

[1] = 6-TG 1 μM every 48 h with DETA/NO or GSNO 10 μM, longer than ~10 days
[2] = 8-TG 1 μM with NO donor (DETA/NO or GSNO 10 μM), not shown

Compound | MS peak representing 6-TGNP-Rac1 adduct (Rac1; T cells, both 6-TG and NO, intensity not truly quantitative) | thioguanine nucleotide-Rac1 disulfide adduct (Rac1) | viability of 6-TG-resisting cells (T24 cells; [1]) | apoptosis within a day (T24 cells; 6-TG 1 μM, not shown) | initial cells that resisted additional treatment (T24 cells; 6-TG 1 μM, not shown) | viability of 6-TG-resisting cells (HT1080 cells; [1]) | apoptosis within a day (HT1080 cells; 6-TG 1 μM, not shown) | initial cells that resisted additional treatment (HT1080 cells; 6-TG 1 μM, not shown) | RhoA inactivation (RhoA; 6-TG 1 μM, within 3 days, FIG. 20B) | fraction of inactive RhoA (RhoA; 6-TG plus DETA/NO 10 μM, FIG. 20B) | cellular expression levels of RhoA and of the MLC (RhoA; presence or absence of 6-TG, FIG. 20A) | cells persistently resisting additional treatments (of the initial cells) (HME-RhoC cells; 6-TG 1 μM) | cells that underwent apoptosis within a day (HME-RhoC cells) | viability and anchorage-independent growth (T24 cells; [2]) | viability and anchorage-independent growth (HT1080 cells; [2]) | screen of 6-TP isomers on RhoA activity (RhoA; not shown) | delayed minor apoptosis over the course of a week of treatment (HME-RhoC cells; 8-TG 1 μM)
Nc1nc2nc[nH]c2c(=S)[nH]1 [6-TG, 6-thioguanine] | increased | has been identified | decrease in the viability | most cells underwent apoptosis | ~20% | decrease in the viability | most cells underwent apoptosis | ~20% | significant portion of RhoA was inactivated | synergistically increases the fraction of inactive RhoA | not changed | 20%-25% | ~80% |  |  |  | 
Nc1nc2[nH]c(S)nc2c(=O)[nH]1 [8-TG, 2-amino-8-mercapto-1H-purin-6(9H)-one] |  | biologically inactive 8-TGNP-Rac1 disulfide adduct |  |  |  |  |  |  |  |  |  |  | less than 5% | did not affect | did not affect | most effectively inhibits RhoA activity | ~5%
